The structures appear in SMILES notation.

Data set [1] can be described thus: pH titration of halogenated fluorescein (pH0.5). The data set is classed as physicochemical. Here is the method: The pH0.5 values (the pH value when the open form reduce to the half of the maximum) of various fluorescein derivatives were determined experimentally through pH titration (Supplementary Figs. 6–16).
The pH of the solutions were adjusted through varying the ratios of citric acid and Na2HPO4 (pH 2.2–8.0), and further acidity was adjusted with concentrated HCl or 1 M NaOH. The absorption and fluorescence spectra of the resultant solutions were then collected.
Section S5. pH-dependent Properties of the Halogenated Fluoresceins.
S5.1 pH titration of halogenated fluorescein
Fluorescein derivatives (Supplementary Table 1) were dissolved in DMSO to obtain 1 mM stock solutions and then diluted with citric acid-Na2HPO4 buffer (100 mM) to 10
μM. The pH of the solutions were adjusted through varying the ratios of citric acid and Na2HPO4 (pH 2.2-8.0), and further acidity was adjusted with concentrated HCl or 1 M
NaOH. The absorption and fluorescence spectra of the resultant solutions were then

Data set [2] can be described thus: Relative singlet oxygen quantum yield (1O2 phosphorescence, Rose Bengal standard). Format: physicochemical. Further details: key: relative to Rose Bengal standard (ΦΔ = 0.75). Here is the method:
To permit the open-form structure of all fluorescein derivatives, all the measurements were carried out in pH = 10 media.
The singlet oxygen quantum yields (ΦΔ) of all fluorescein-based PSs were evaluated with Rose Bengal as the standard (ΦΔ = 0.75):1 ΦΔ=AsAbsorption/As(Emission)×ARB(Emission)/ARB(Absorption)×0.75 Here, the area of absorption (RB and PSs) was collected with an integrating sphere (λex = 510 nm), while the area of emission was obtained from the characterized 1270 nm ^1O2 phosphorescence emission. For collection of such emission, CH3CN and D2O mixed solvent (v (D2O): v (CH3CN) = 1:15, pH = 9.0, adjusted with 0.001 M NaOH) was used, since H2O can severely quench the singlet oxygen luminescence. For all the measurements, the concentrations of the PSs were set at 10 μM.
S6.3 Relative singlet oxygen quantum yield
The singlet O2 quantum yield of photosensitizers were measured by Fluolog-3 spectrofluorometer with an integration sphere (IS80, Labsphere) and NIR detector (Hamamatsu H-10330) in this work.
For better collection of the characterized singlet oxygen phosphorescence emission (1275 nm), CH3CN and D2O mixed solvent was used (H2O can severely quench the singlet oxygen luminescence). The 10 mM stock solutions in CH3CN and D2O mixed solvent (VCH3CN:VD2O = 15:1) were first prepared. The stock solutions were diluted to 10 μM, and the final volume was 2 mL. In addition, the CH3CN and D2O mixed solvent as blank was also prepared.
1. Turn on the instrument and the start software, the light source is xenon lamp.
2. From the experiment menu, selected spectra, emission. The 1O2 emission phosphorescence spectra are first measured.
3. The parameters setting are listed: a. Excitation wavelength: 510 nm

A short description of data set [3]: Photophysical characterization (absorption, fluorescence, phosphorescence, lifetime). The data set is classed as physicochemical. Here is the method:
Section S6. Photophysical Characterizations
S6.1 Absorption, fluorescence, and phosphorescence spectra
Fluorescein and its derivatives were dissolved in DMSO to obtain 1 mM stock solutions.
The stock solutions were diluted with deionized water to 10 μM.
Supplementary Figure 20. The absorption (black), fluorescence (blue), and phosphorescence (red, slit 25 nm) spectra of FL.
Supplementary Figure 21. The absorption (black), fluorescence (blue), and phosphorescence (red, slit 25 nm) spectra of DCF.
S6.2 Fluorescence lifetime
Fluorescence decay samples was recorded with Fluorolog-3 (Horiba). The solution of samples were prepared to be 5 μM in 0.5% (v/v) DMSO, and diluted with 0.1M NaOH.
S6.5 Photophysical properties of the halogenated-fluorescein derivatives
Supplementary Table 4. Photophysical Properties of Halogenated-fluorescein derivatives. […]
a Measured in 2% DMSO; b Measured in 2% DMSO citric acid -disodium hydrogen phosphate buffer; c Measured in a mixed solvent of D 2O and CH3CN (VD2O:
VCH3CN = 1: 15); d The solution of samples were prepared to be 5 μM in 0.5% (v/v) DMSO, and diluted with 0.1 M NaOH.

Details of data set [4]: method as in PMID 10546544. As to conditions: Rose Bengal as the standard; cited from earlier work.

Regarding `O=C(O)c1c(Cl)c(Cl)c(Cl)c(Cl)c1-c1c2cc(I)c(=O)c(I)c-2oc2c(I)c(O)c(I)cc12` [RB, Tetraiodo-tetrachloro-fluorescein], the pH0.5 in data set [1] (2% DMSO citric acid-disodium hydrogen phosphate buffer (Supplementary Table 4)) is reported as 3.99. This molecule also registered a pH0.5 in data set [1] (pH value when the open form reduces to half of the maximum, pH titration, 10 μM, citric acid–Na2HPO4 buffer) of 3.99. Besides, in data set [2] (mixed solvent of D2O and CH3CN (1:15) (Supplementary Table 4)), the “Singlet oxygen yield (ΦΔ)” value is 0.75. Also, the “singlet oxygen quantum yield (ΦΔ)” value in data set [2] (pH = 10 media, relative, RB as the standard) was determined as 0.75. In data set [3], the kdec was determined as 1e+11 s⁻¹, the knr came to 9.97e+10 s⁻¹ and the krad worked out at 3e+08 s⁻¹. The molecule also yielded a ΦFL in data set [3] (5 μM in 0.5% (v/v) DMSO, diluted with 0.1 M NaOH) of 0.003. For the same molecule, in data set [3] (2% DMSO), the λAbs came out at 550 nm, the λPh is given as 732 nm and the λem was 570 nm. In data set [3] (fluorescence lifetime, 5 μM in 0.5% DMSO, 0.1 M NaOH), this molecule gave a τfl of 0.01 ns. The “singlet oxygen quantum yield (ΦΔ) of the standard” value in data set [4] is 0.75.

Source of the values: PMC7822816, “Halo-fluorescein for photodynamic bacteria inactivation in extremely acidic conditions” (Nature Communications, 2021).
